# Measured values published in patent publication US20250382298A1, “NITROGEN-CONTAINING COMPOUND AND USE THEREOF” (SUZHOU GENHOUSE BIO CO., LTD., priority 2022, published 2025).
# pIC50: −log10 of the molar value.
# Columns and labels:
# [1] = test system: OVCAR3 cells; test: Detection of OVCAR3 cell proliferation activity by CTG method; assay type: cell-based; conditions: CellTiter-Glo, 7 days
# In short: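 OVCAR3 cells (2000/well) were exposed for 7 days to compound at 10 μM to 0.026 nM, 5-fold steps, in duplicate. Viability was read as CellTiter-Glo luminescence. A plate read on the day of compound addition served as the Max value for IC50 derivation.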
# [2] = test system: OVCAR3 cells; test: Detection of cell proliferation activity by CCK8 method (OVCAR3); assay type: cell-based
# In short: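 OVCAR3 tumor cells in log-phase growth were trypsinized, counted and plated at 180 μL per well in 96-well plates, with PBS in the outer wells. The following day, compounds were added in 9 concentrations (1:5 dilutions starting at 10 μM final) in triplicate alongside DMSO controls. After 96 h, medium was swapped for 100 μL medium containing 10% CCK8. Plates were incubated 2 h at 37° C and read at 450 nm. Background-corrected inhibition relative to DMSO was fitted by non-linear regression in GraphPad Prism 7.0 to obtain IC50.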
# [3] = molecular target: cytochrome oxidase P450 2C9 (Homo sapiens (Human), UniProt P11712); test: Inhibition of cytochrome oxidase P450 2C9; assay type: in vitro ADME; conditions: liver microsomes, CYP2C9
# Procedure: 100 mM K-Buffer: 9.5 mL of stock solution A was mixed with 40.5 mL of stock solution B, the total volume was adjusted to 500 mL with ultrapure water, and the buffer was titrated to pH 7.4 with KOH or H3PO4. The test compound powder was prepared into a stock solution at a certain concentration with DMSO or another organic solvent, which was then further diluted with a proper organic solvent. The liver microsomal in vitro incubation system for the CYP450 enzyme metabolism phenotype study was a biochemical reaction of prepared liver microsomes supplemented with a redox coenzyme and an enzyme-specific selective inhibitor under simulated physiological temperature and environment conditions. The concentration of the parent drug or a metabolite thereof in the incubation solution was determined by LC-MS/MS.
# [4] = molecular target: cytochrome oxidase P450 2C19 (Homo sapiens (Human), UniProt P33261); test: Inhibition of cytochrome oxidase P450 2C19; assay type: in vitro ADME; conditions: liver microsomes, CYP2C19
# [5] = Homo sapiens, OVCAR-3, CCK8, 96 h
# cytochrome oxidase P450 2C9, sequence (P11712 whole entry): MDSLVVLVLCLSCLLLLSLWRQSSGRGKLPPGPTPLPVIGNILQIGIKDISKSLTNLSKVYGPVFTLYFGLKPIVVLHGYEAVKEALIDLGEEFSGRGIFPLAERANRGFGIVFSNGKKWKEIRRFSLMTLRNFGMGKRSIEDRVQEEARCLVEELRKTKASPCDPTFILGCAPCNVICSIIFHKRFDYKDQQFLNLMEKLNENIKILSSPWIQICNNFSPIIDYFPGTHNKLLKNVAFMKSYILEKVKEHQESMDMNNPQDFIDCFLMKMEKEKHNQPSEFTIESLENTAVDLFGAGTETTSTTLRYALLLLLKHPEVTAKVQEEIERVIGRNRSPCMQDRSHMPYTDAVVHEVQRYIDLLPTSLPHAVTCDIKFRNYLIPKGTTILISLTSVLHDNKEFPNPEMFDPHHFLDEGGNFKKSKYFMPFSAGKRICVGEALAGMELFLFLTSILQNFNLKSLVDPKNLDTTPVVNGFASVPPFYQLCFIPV
# cytochrome oxidase P450 2C19, sequence (P33261 whole entry): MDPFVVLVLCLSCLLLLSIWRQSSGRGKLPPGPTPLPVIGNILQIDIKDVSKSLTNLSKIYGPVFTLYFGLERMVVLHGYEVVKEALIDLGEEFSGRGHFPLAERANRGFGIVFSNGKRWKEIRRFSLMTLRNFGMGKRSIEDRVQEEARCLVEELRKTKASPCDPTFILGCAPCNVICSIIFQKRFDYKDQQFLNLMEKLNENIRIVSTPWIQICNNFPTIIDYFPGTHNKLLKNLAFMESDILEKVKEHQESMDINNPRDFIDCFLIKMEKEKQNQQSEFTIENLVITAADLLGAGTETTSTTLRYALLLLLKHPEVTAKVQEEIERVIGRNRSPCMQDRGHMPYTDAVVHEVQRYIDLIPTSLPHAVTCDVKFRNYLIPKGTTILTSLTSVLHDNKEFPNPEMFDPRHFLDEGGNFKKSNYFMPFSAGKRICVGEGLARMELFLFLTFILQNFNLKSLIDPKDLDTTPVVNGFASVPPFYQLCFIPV
SMILES,"pIC50 ([1]; Homo sapiens, OVCAR-3, 168 h)","pIC50 [2, 5]",pIC50 [3],pIC50 [4],pIC50 [1],"pIC50 ([2]; CCK8, 96 h)"
O=C(Nc1cn2ccnc2c(N2CCC(F)(F)CC2)n1)c1ccc(NS(=O)(=O)CCO)cc1N1CCC2(CC1)CC2 [Compound 8],8.24,8.14,5.58,< 5.00,,
CS(=O)(=O)Nc1ccc(C(=O)Nc2cn3ccnc3c(N3CCC(F)(F)CC3)n2)c(N2CCC3(CC2)CC3)c1 [Compound 10],7.80,,,,,
O=C(Nc1cc2ccsc2c(N2CCC(F)(F)CC2)n1)c1ccc(NS(=O)(=O)CCO)cc1N1CCC2(CC1)CC2 [Compound 15],7.62,,,,,
O=C(Nc1cn2ccnc2c(N2CCC(F)(F)CC2)n1)c1ccc(NS(=O)(=O)CCO)cc1N1CC2CCC(C2)C1 [Compound 17],8.20,,,,,
CS(=O)(=O)Nc1ccc(C(=O)Nc2cn3ccnc3c(N3CCC(F)(F)CC3)n2)c(N2CC3CCC(C3)C2)c1 [Compound 19],,7.64,5.03,< 5.00,,
O=C(Nc1cc2cccnc2c(N2CCC(F)(F)CC2)n1)c1ccc(NS(=O)(=O)CCO)cc1N1CCC2(CC1)CC2 [Compound 21],,8.47,< 5.00,< 5.00,,
O=C(Nc1cn2ncnc2c(N2CCC(F)(F)CC2)n1)c1ccc(NS(=O)(=O)CCO)cc1N1CCC2(CC1)CC2 [Compound 23],8.19,8.24,,,,
O=C(Nc1cn2cnnc2c(N2CCC(F)(F)CC2)n1)c1ccc(NS(=O)(=O)CCO)cc1N1CCC2(CC1)CC2 [Compound 24],,,,,7.75,7.91
O=C(Nc1cn2c(F)cnc2c(N2CCC(F)(F)CC2)n1)c1ccc(NS(=O)(=O)CCO)cc1N1CCC2(CC1)CC2 [Compound 34],,7.97,5.35,< 5.00,,
CS(=O)(=O)Nc1ccc(C(=O)Nc2cc3cc[nH]c3c(N3CCC(F)(F)CC3)n2)c(N2CCC3(CC2)CC3)c1 [Compound 47],,8.10,6.74,6.01,,

# Second part, led by results:
"pIC50 ([1]; Homo sapiens, OVCAR-3, 168 h)","pIC50 [2, 5]",pIC50 [3],pIC50 [4],SMILES,pIC50 [1],"pIC50 ([2]; CCK8, 96 h)"
7.07,6.84,,,Cc1cc(NC(=O)c2ccc(NS(=O)(=O)CCO)cc2N2CC3CCC(C3)C2)nc(N2CCC(F)(F)CC2)n1 [Compound 3],,
6.93,7.24,5.28,< 5.00,O=C(Nc1cc2ccccc2c(N2CCC(F)(F)CC2)n1)c1ccc(NS(=O)(=O)CCO)cc1N1CCC2(CC1)CC2 [Compound 6],,
8.25,,,,O=C(Nc1cc2c(c(N3CCC(F)(F)CC3)n1)COC2)c1ccc(NS(=O)(=O)CCO)cc1N1CCC2(CC1)CC2 [Compound 14],,
7.95,8.47,,,O=C(Nc1cc2cc[nH]c2c(N2CCC(F)(F)CC2)n1)c1ccc(NS(=O)(=O)CCO)cc1N1CCC2(CC1)CC2 [Compound 22],,
